Measured values from ChEMBL document CHEMBL4177679, “The identification of a novel lead class for phosphodiesterase 2 inhibition by fragment-based drug design” (Bioorg Med Chem Lett, 2017).
Converted amounts (≈) assume the structure as drawn.

Columns and labels:
[1] = Solubility of the compound at pH 6.5; assay type: physicochemical; details: buffer
[2] = Clearance in po dosed rat; assay type: ADME, organism-based; details: in vivo
Rattus norvegicus [3] = assay: Dose normalized AUC in po dosed rat; assay type: ADME, organism-based; details: in vivo
[4] = Half-life in po dosed rat; assay type: ADME, organism-based; details: in vivo
Rattus norvegicus [5] = assay: Volume of distribution in po dosed rat; assay type: ADME, organism-based; details: in vivo
rat MDR1A = assay: Apparent permeability in pig LLC-PK1 expressing rat MDR1A; assay type: ADME, cell-based, Sus scrofa
[6] = Oral bioavailability in rat; assay type: ADME, organism-based; details: in vivo

SMILES	solubility [1] [µM]	further results
Cn1ncc2c(NCc3ccc(Cl)cc3)nc(Cl)nc21	145 (≈ 44.7 µg/mL)	–
Cn1ncc2c(NCc3cccc(Cl)c3)nc(Cl)nc21	78 (≈ 24 µg/mL)	–
Cn1ncc2c(NCCc3ccc(C(F)(F)F)cc3)nc(Cl)nc21	150 (≈ 53.4 µg/mL)	–
Cn1ncc2c(N3CCCCC3c3ccc(C(F)(F)F)cc3)nc(Cl)nc21 (configuration not stated)	138 (≈ 54.6 µg/mL)	–
Cn1ncc2c(NC3(c4ccc(C(F)(F)F)cc4)CC3)nc(O)nc21	175 (≈ 61.1 µg/mL)	–
Cn1ncc2c(NC(C)(C)c3ccc(C(F)(F)F)cc3)nc(Cl)nc21	183 (≈ 67.7 µg/mL)	–
Cc1nc(NC2(c3ccc(C(F)(F)F)cc3)CC2)c2cnn(C)c2n1	–	CL/F [2]: 44.4 mL/min/kg; AUC/dose (Rattus norvegicus [3]): 0.24 µM·kg·h/mg; half-life [4]: 1.34 h; Vd (Rattus norvegicus [5]): 3.78 L/kg; Papp (rat MDR1A): 0.82 to 26.7 ×10⁻⁶ cm/s; bioavailability [6]: 16.9%
Cn1ncc2c(NCc3ccc(C(F)(F)F)cc3)nc(Cl)nc21	164 (≈ 56 µg/mL)	–
C[C@@H](Nc1nc(Cl)nc2c1cnn2C)c1ccc(C(F)(F)F)cc1	159 (≈ 56.6 µg/mL)	–
Cn1ncc2c(NC3(c4ccc(C(F)(F)F)cc4)CC3)nc(C3CC3)nc21	125 (≈ 46.7 µg/mL)	–
CNc1nc(Cl)nc2c1cnn2C	206 (≈ 40.7 µg/mL)	–
Cn1ncc2c(N3CCCC3c3ccc(C(F)(F)F)cc3)nc(Cl)nc21 (configuration not stated)	139 (≈ 53.1 µg/mL)	–
Cn1ncc2c(NCc3ccc(C(F)(F)F)cn3)nc(Cl)nc21	176 (≈ 60.3 µg/mL)	–
Cn1ncc2c(NCc3ccccc3Cl)nc(Cl)nc21	44 (≈ 13.6 µg/mL)	–
Cn1ncc2c(NC3(c4ccc(C(F)(F)F)cc4)CC3)nc(Cl)nc21	156 (≈ 57.4 µg/mL)	–
FC(F)(F)c1ccc(C2(Nc3nc(Cl)nc4[nH]ncc34)CC2)cc1	105 (≈ 37.1 µg/mL)	CL/F [2]: 8.44 mL/min/kg; AUC/dose (Rattus norvegicus [3]): 6.59 µM·kg·h/mg; half-life [4]: 6.33 h; Vd (Rattus norvegicus [5]): 4.64 L/kg; Papp (rat MDR1A): 1.63 to 26.5 ×10⁻⁶ cm/s; bioavailability [6]: 146%
